This note sets out measurements from article PMC10757017 (Heliyon, 2023).

As a reminder, the IC50 is the concentration that inhibits the measured activity by half. Lower therefore signals greater potency in that assay. One may read the Ki as a dissociation constant, usually derived from enzyme kinetics or from competition with a known ligand. The low end stands for tighter binding, the high end for weaker binding.

Experiment [1] concerns the target T1, α-glucosidase (Saccharomyces cerevisiae, UniProt P53341). The experiment can be described thus: α-Glucosidase inhibitory assay. It counts as biochemical.
For experiment [2], the target named is T1, α-glucosidase. The experiment can be described thus: Kinetic studies. Format: biochemical. As to conditions: for type of inhibition: Lineweaver-Burk plots, Km increases, Vmax constant.

T1 sequence (P53341 whole entry): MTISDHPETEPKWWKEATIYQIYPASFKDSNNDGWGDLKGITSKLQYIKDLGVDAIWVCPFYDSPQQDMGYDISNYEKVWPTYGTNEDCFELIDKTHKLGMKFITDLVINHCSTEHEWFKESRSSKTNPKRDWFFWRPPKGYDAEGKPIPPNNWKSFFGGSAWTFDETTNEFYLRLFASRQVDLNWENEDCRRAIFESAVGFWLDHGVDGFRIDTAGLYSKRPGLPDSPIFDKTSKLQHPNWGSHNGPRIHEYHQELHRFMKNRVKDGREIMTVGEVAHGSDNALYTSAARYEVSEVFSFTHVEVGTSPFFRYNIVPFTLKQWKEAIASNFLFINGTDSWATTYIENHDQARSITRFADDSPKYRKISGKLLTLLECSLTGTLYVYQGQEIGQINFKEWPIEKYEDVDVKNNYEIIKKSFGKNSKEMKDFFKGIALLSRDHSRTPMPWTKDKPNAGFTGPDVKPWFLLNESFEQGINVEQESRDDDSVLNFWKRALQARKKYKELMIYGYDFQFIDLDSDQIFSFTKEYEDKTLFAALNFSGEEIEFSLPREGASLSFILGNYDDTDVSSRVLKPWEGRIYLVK

Take `CN(C)c1ccc(C(=NN=Cc2ccc(O)cc2O)c2ccc(N(C)C)cc2)cc1` [Compound 2, 4-{[bis-(4-dimethylamino-phenyl)-methylene]-hydrazonomethyl}-benzene-1,3-diol]: the IC50 at α-glucosidase [1] was found to be 680 ± 290 nM.
As for `CN(C)c1ccc(C(=NN=Cc2cccc(O)c2O)c2ccc(N(C)C)cc2)cc1` [Compound 4, 3-{[bis-(4-dimethylamino-phenyl)-methylene]-hydrazonomethyl}-benzene-1,2-diol], the IC50 on α-glucosidase [1] came out at 330 nM.
`CN(C)c1ccc(C(=NN=Cc2cc([N+](=O)[O-])ccc2O)c2ccc(N(C)C)cc2)cc1` [Compound 8, 2-{[bis-(4-dimethylamino-phenyl)-methylene]-hydrazonomethyl}-4-nitro-phenol] gave an IC50 on α-glucosidase [1] of 280 nM. Also, on α-glucosidase [2], the Ki was 2790 ± 11 nM and the type of inhibition result is given as “competitive”.
Taken in the same sequence, the figures for `COc1cccc(C=NN=C(c2ccc(N(C)C)cc2)c2ccc(N(C)C)cc2)c1O` [Compound 9, 2-{[bis-(4-dimethylamino-phenyl)-methylene]-hydrazonomethyl}-6-methoxy-phenol] were 280 nM, 3640 ± 12 nM and “competitive”.
`CN(C)c1ccc(C(=NN=Cc2cccc(C=O)c2)c2ccc(N(C)C)cc2)cc1` [Compound 15, 3-{[bis-(4-dimethylamino-phenyl)-methylene]-hydrazonomethyl}-benzaldehyde] gave an IC50 at α-glucosidase [1] of 490 ± 1430 nM.
As to `CN(C)c1ccc(C(=NN=Cc2ccc(O)c(O)c2)c2ccc(N(C)C)cc2)cc1` [Compound 17, 4-{[bis-(4-dimethylamino-phenyl)-methylene]-hydrazonomethyl}-benzene-1,2-diol], the IC50 on α-glucosidase [1] is 350 nM. This counts as sub-micromolar.
On to `CN(C)c1ccc(C(=NN=Cc2ccc(O)cc2)c2ccc(N(C)C)cc2)cc1` [Compound 26, 4-{[bis-(4-dimethylamino-phenyl)-methylene]-hydrazonomethyl}-phenol], for which 820 ± 1120 nM corresponded to half-maximal inhibition against α-glucosidase [1] (IC50).
